# Data: patent US20220242861A1, “IMIDAZOPYRIDINYL COMPOUNDS AND USE THEREOF FOR TREATMENT OF PROLIFERATIVE DISORDERS” (1ST Biotherapeutics, Inc., priority 2019, published 2022)
# Key:
# recombinant human c-Kit = biological target: T1, recombinant human c-Kit (Homo sapiens, UniProt P10721); experiment: c-Kit Kinase Assay (ADP-Glo); format: biochemical; settings: In vitro kinase activity
# T1 construct: purchased Signalchem
# Protocol: (§1) ADP-Glo assay kit was purchased from Promega. Magnesium chloride (MgCl2), ethylene glycol-bis(8-aminoethyl ether)-N,N,N′,N′-tetraacetic acid (EGTA), manganese (II) chloride (MnCl2), bovine serum albumin (BSA), 1,4-dithiothreitol (DTT) and dimethyl sulfoxide (DMSO) were purchased from Sigma-Aldrich. HEPES buffer was purchased from Gibco. c-Kit kinase and poly (4:1 Glu, Tyr) peptide were purchased from Signalchem.
# (§2) c-Kit kinase activity was measured by Promega's ADP-Glo™ Assay. In this assay, 100ng of recombinant human c-Kit is incubated with 5 μL of compounds (0.5% DMSO), 5 μL of Poly (4:1 Glu, Tyr) peptide (50 ng/μl) and 5 μL of ATP (50 μM) in buffer (50 mM HEPES, pH7.5; 10 mM MgCl2; 1 mM EGTA; 0.05% BSA; 50μM DTT; 2mM MnCl2). The assay was started by incubating the reaction mixture in a 96-well plate at 30° C. for 120-min. After the incubation, 25 μL ADP-Glo reagent was added and the reaction was incubated at room temperature for 40-min to stop the reaction and degrade residual ATP. The ADP product was then converted to ATP by adding 50 μL per well of detection reagent. Luminescence was detected after 30-min room temperature incubation with the Molecular device I3X plate reader. The IC50 values were calculated from a series of percent inhibition values determined at a range of inhibitor concentration using software routines as implemented in the GraphPad Prism 8 software and Sigma Plot 13.0.
# [1] = biological target: T2, recombinant human c-Kit (D816V) (Homo sapiens, UniProt P10721, D816V); experiment: c-Kit (D816V) Kinase Assay (ADP-Glo); format: biochemical; settings: In vitro kinase activity
# T2 construct: purchased Signalchem
# Protocol: as §1, with “glycol-bis(β-aminoethyl” for “glycol-bis(8-aminoethyl”, “(EGTA),” for “(EGTA), manganese (II) chloride (MnCl2),”, “c-Kit (D816V)” for “c-Kit”
# as §2, with “c-Kit (D816V)” for “c-Kit”, “Promega's ADP-GIoTM” for “Promega's ADP-Glo™”, “assay, 2.5ng” for “assay, 100ng”, “ATP (15” for “ATP (50”, “BSA; 50 μM DTT).” for “BSA; 50μM DTT; 2mM MnCl2).”
# recombinant human PDGFRα = biological target: T3, recombinant human PDGFRα (Homo sapiens, UniProt P16234); experiment: PDGFRα Kinase Assay (ADP-Glo); format: biochemical; settings: In vitro kinase activity, read-out: PDGFRa IC50
# T3 construct: purchased Signalchem
# Protocol: as §1, with “glycol-bis(p-aminoethyl” for “glycol-bis(8-aminoethyl”, “(EGTA),” for “(EGTA), manganese (II) chloride (MnCl2),”, “PDGFRα Kinase” for “c-Kit kinase”
# (§3) PDGFRα kinase activity was measured by Promega's ADP-Glo™ Assay. In this assay, 40ng of recombinant human PDGFRα is incubated with 5 μL of compounds (0.5% DMSO), 5 μL of Poly (4:1 Glu, Tyr) peptide (100 ng/μl) and 5 μL of ATP (25 pM) in buffer (50 mM HEPES, pH7.5; 10 mM MgCl2; 1 mM EGTA; 0.05% BSA; 50 μM DTT). The assay was started by incubating the reaction mixture in a 96-well plate at 30° C. for 60-min. After the incubation, 25 μL ADP-Glo reagent was added and the reaction was incubated at room temperature for 40-min to stop the reaction and degrade residual ATP. The ADP product was then converted to ATP by adding 50 μL per well of detection reagent. Luminescence was detected after 30-min room temperature incubation with the Molecular device I3X plate reader. The IC50 values were calculated from a series of percent inhibition values determined at a range of inhibitor concentration using software routines as implemented in the GraphPad Prism 8 software and Sigma Plot 13.0.
# [2] = biological target: T4, recombinant human PDGFRα (D842V) (Homo sapiens, UniProt P16234, D842V); experiment: PDGFRα (D842V) Kinase Assay (ADP-Glo); format: biochemical; settings: In vitro kinase activity
# T4 construct: purchased Signalchem
# Protocol: ADP-Glo assay kit was purchased from Promega. Magnesium chloride (MgCl2), ethylene glycol-bis(p-aminoethyl ether)-N, N, N′, N′-tetraacetic acid (EGTA), bovine serum albumin (BSA), 1,4-dithiothreitol (DTT) and dimethyl sulfoxide (DMSO) were purchased from Sigma-Aldrich. HEPES buffer was purchased from Gibco. PDGFRα (D842V) Kinase and poly (4:1 Glu, Tyr) peptide were purchased from Signalchem.
# as §3, with “PDGFRα (D842V)” for “PDGFRα”, “10 ng” for “40ng”, “([…]” for “(25”, “[…]” for “50 μM”, “120-min.” for “60-min.”
# [3] = system: K562 human leukemia cell line; experiment: K562 Cell Proliferation Assay (MTS); format: cell-based; settings: K562 cells, 48 hr incubation, MTS cell viability
# Protocol: K562 human leukemia cell line purchased from Korean cell line bank (KCLB) and were cultured in Roswell Park Memorial Institute (RPMI) 1640 Medium supplemented with 10% fetal bovine serum (FBS) and 1% penicillin-streptomycin in a humidified incubator in an atmosphere of 5% CO2 at 37° C. Cells were seeded in 96-well plates at a density of 2×10^3 cells/well in 100 […] media. Compounds were diluted as two times concentration in 100 μl of media and added to each well. Compounds were 5-fold serially diluted for 6 points and treated from 5 μM to 1.6 nM in K562 cells. After 48 hr incubation, Compound treated cells were analyzed for anti-proliferation assay. Cell viability was investigated using the Cell Titer 96 Aqueous One Solution Reagent. Briefly, 200 μl of media were supplemented with 40 μl of MTS solution, incubated for 4hr, and then the absorbance was recorded at 490 nm with a 96-well plate reader. G150 values were calculated from a series of percent of cell viability at a range of compound concentration. GraphPad Prism 8 software or SigmaPlot 13.0 was used to generate G150 values.
# T3 sequence (P16234 24-1089): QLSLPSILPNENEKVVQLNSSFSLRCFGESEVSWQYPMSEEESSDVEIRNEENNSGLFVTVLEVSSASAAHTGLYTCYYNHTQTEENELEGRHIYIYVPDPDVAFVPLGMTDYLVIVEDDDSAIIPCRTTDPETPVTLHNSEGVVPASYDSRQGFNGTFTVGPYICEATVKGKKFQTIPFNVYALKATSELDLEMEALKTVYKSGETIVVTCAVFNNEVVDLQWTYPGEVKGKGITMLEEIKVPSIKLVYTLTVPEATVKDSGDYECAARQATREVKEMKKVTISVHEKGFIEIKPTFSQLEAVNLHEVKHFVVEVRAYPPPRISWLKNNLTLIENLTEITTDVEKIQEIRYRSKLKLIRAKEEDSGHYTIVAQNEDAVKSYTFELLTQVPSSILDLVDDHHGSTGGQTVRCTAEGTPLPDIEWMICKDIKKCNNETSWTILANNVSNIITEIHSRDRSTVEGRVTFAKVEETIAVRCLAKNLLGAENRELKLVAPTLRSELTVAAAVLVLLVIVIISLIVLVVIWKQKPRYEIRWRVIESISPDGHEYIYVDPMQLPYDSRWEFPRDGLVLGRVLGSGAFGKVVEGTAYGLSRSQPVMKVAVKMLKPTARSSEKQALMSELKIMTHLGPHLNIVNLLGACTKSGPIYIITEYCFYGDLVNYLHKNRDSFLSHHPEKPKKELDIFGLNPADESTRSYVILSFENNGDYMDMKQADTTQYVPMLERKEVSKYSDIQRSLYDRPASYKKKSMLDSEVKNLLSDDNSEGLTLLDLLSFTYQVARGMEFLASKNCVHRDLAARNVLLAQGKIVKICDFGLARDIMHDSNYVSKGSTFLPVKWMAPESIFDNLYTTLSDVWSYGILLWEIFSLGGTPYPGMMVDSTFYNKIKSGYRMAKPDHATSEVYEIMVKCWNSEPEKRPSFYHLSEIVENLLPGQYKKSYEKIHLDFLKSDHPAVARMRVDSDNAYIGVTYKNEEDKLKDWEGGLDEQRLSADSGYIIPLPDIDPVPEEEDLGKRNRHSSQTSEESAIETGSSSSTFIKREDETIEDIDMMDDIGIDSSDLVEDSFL
# T4 sequence (P16234 24-1089 D842V): as the sequence (P16234 24-1089) above, with D819V counted along it
# T1 sequence (P10721 26-976): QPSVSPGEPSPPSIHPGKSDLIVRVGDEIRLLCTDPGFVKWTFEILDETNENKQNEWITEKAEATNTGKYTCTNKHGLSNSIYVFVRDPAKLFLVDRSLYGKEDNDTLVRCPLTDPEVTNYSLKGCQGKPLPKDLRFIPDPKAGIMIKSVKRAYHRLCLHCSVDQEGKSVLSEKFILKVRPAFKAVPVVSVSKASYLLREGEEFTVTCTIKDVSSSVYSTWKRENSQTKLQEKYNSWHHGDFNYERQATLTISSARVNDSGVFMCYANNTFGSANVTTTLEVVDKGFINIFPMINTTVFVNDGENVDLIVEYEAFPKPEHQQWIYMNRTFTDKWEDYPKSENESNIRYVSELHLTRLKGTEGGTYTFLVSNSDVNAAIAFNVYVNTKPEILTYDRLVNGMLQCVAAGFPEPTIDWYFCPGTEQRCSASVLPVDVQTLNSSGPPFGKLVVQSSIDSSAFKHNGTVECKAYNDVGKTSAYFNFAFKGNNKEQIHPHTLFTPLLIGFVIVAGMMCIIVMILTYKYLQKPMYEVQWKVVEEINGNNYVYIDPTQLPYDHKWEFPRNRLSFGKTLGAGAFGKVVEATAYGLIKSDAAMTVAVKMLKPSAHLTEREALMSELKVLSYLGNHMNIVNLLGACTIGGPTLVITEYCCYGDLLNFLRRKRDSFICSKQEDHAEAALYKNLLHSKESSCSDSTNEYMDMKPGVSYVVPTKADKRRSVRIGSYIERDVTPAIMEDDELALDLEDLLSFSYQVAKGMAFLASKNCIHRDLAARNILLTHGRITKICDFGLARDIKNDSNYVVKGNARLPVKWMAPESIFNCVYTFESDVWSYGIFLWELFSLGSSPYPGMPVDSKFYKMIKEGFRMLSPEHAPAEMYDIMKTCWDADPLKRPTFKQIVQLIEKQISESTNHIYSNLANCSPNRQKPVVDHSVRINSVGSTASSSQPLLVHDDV
# T2 sequence (P10721 26-976 D816V): as the sequence (P10721 26-976) above, with D791V counted along it
SMILES,IC50 (recombinant human c-Kit),IC50 [1],IC50 (recombinant human PDGFRα),IC50 [2],IC50 [3]
"CC(C)NCc1c(F)cccc1-c1ccc2nc(NC(=O)[C@@H]3C[C@@H]3F)cn2c1 [Example 81, (1 S,2 S)-2-fluoro-N-(6-(3-fluoro-2-((isopropylamino)methyl)phenyl)imidazo[1,2-a]pyridin-2-yl)cyclopropanecarboxamide]",> 1000 nM,> 1000 nM,> 1000 nM,> 1000 nM,–
COCCOCc1c(F)cccc1-c1ccc2nc(NC(=O)[C@@H]3C[C@@H]3F)cn2c1 [Example 82],> 1000 nM,> 1000 nM,101 to 1000 nM,101 to 1000 nM,–
"O=C(Nc1cn2cc(-c3cccc(F)c3COCCO)ccc2n1)[C@@H]1C[C@@H]1F [Example 83, (1 S,2 S)-2-fluoro-N-(6-(3-fluoro-2-((2-hydroxyethoxy)methyl)phenyl)imidazo[1,2-a]pyridin-2-yl)cyclopropanecarboxamide]",> 1000 nM,> 1000 nM,101 to 1000 nM,101 to 1000 nM,–

# Continued, values first:
IC50 (recombinant human c-Kit),IC50 [1],IC50 (recombinant human PDGFRα),IC50 [2],IC50 [3],SMILES
> 1000 nM,101 to 1000 nM,101 to 1000 nM,10 to 100 nM,101 to 1000 nM,"O=C(Nc1cn2cc(-c3cccc(F)c3CO)ccc2n1)[C@@H]1C[C@@H]1F [Example 57, (1 S,2 S)-2-fluoro-N-(6-(3-fluoro-2-(hydroxymethyl)phenyl)imidazo[1,2-a]pyridin-2-yl)cyclopropane-1-carboxamide]"
> 1000 nM,> 1000 nM,> 1000 nM,> 1000 nM,–,"NCc1c(F)cccc1-c1ccc2nc(NC(=O)[C@@H]3C[C@@H]3F)cn2c1 [Example 74, (1 S,2 S)-N-(6-(2-(aminomethyl)-3-fluorophenyl)imidazo[1,2-a]pyridin-2-yl)-2-fluorocyclopropanecarboxamide]"
> 1000 nM,> 1000 nM,> 1000 nM,> 1000 nM,–,"CC(=O)NCc1c(F)cccc1-c1ccc2nc(NC(=O)[C@@H]3C[C@@H]3F)cn2c1 [Example 75, (1 S,2 S)-N-(6-(2-(acetamidomethyl)-3-fluorophenyl)imidazo[1,2-a]pyridin-2-yl)-2-fluorocyclopropanecarboxamide]"
> 1000 nM,> 1000 nM,> 1000 nM,> 1000 nM,–,"CNCc1c(F)cccc1-c1ccc2nc(NC(=O)[C@@H]3C[C@@H]3F)cn2c1 [Example 80, (1 S,2 S)-2-fluoro-N-(6-(3-fluoro-2-((methylamino)methyl)phenyl)imidazo[1,2-a]pyridin-2-yl)cyclopropanecarboxamide]"
